The record followed here is ChEMBL document CHEMBL5634174, “Biological evaluation of sulfonate and sulfate analogues of lithocholic acid: A bioisosterism-guided approach towards the discovery of potential sialyltransferase inhibitors for antimetastatic study” (Bioorg Med Chem Lett, 2024).

Activity calls are given as the source filed them. The rule behind the calls is not given here.

The test system of experiment [1] is MDA-MB-231. The experiment can be described thus: Inhibition of cell invasion in human MDA-MB-231 cells assessed as reduction in cell adhesion to fibronectin at 60 uM incubated for 24 hrs. It is filed as functional, cell-based.
Experiment [2] concerns MDA-MB-231. The experiment can be described thus: Inhibition of cell invasion in human MDA-MB-231 cells assessed as reduction in cell adhesion at 60 uM after 48 hrs. Format: functional, cell-based.
Experiment [3] addresses Integrin alpha-V (Homo sapiens) (UniProt P06756). The experiment can be described thus: Inhibition of integrin alpha-v in human MDA-MB-231 cells assessed as decrease in sialylation level incubated for 48 hrs by Western blot analysis. Format: cell-based. The note with it: dose 20-80 µM. (In general: Immunoblotting shows a protein as a band on a membrane.)
The target in experiment [4] is T1, Integrin beta-3 (Homo sapiens) (UniProt P05106).
T1 sequence (whole entry): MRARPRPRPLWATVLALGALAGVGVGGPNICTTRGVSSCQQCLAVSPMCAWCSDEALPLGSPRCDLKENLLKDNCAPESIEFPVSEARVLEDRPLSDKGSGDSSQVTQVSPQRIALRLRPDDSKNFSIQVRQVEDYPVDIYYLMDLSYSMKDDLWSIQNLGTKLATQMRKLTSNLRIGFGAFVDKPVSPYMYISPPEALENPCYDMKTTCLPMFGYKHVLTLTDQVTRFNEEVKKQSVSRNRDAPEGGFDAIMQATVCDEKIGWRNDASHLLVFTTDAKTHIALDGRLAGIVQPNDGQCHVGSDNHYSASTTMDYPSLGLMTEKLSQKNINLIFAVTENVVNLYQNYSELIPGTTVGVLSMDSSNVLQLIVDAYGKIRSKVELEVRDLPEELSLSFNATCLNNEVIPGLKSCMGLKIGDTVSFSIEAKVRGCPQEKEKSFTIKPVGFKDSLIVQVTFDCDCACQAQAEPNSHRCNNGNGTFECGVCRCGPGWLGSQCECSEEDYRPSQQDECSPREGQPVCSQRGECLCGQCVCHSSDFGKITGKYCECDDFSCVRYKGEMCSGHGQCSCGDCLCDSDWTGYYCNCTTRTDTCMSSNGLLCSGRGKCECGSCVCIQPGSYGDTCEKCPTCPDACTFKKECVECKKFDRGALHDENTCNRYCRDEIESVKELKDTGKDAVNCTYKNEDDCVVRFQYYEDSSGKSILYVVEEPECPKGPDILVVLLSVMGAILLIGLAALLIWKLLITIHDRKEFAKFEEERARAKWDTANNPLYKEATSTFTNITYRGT
The experiment can be described thus: Inhibition of integrin beta-3 in human MDA-MB-231 cells assessed as decrease in sialylation level incubated for 48 hrs by Western blot analysis. It is filed as cell-based. The note with it: dose 20-80 µM.

Experiment [5] deals with T2, Integrin beta-5 (Homo sapiens) (UniProt P18084).
T2 sequence (whole entry): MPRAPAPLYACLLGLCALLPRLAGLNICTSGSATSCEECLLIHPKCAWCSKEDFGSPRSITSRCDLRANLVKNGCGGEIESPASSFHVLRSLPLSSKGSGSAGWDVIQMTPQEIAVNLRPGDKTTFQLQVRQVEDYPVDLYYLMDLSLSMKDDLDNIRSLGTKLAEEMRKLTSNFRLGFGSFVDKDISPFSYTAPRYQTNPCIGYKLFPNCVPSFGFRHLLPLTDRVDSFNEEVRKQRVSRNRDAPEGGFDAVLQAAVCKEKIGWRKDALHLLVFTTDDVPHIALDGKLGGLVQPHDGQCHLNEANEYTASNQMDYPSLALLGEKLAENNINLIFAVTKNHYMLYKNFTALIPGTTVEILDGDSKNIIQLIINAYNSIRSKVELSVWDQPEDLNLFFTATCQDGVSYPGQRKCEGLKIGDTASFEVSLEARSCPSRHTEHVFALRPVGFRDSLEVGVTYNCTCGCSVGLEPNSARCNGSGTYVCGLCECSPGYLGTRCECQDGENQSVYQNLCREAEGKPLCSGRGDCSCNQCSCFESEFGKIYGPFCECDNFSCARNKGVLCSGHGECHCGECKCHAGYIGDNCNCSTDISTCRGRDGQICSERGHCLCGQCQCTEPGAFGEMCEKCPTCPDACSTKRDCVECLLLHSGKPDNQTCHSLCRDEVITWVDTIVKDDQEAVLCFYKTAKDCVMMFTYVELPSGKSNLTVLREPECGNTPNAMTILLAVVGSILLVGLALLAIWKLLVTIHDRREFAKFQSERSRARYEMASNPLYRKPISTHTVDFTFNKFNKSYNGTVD
Description: Inhibition of integrin beta-5 in human MDA-MB-231 cells assessed as decrease in sialylation level incubated for 48 hrs by Western blot analysis. It is filed as cell-based. The note with it: dose 20-80 µM.

Chain of Integrin alpha-V (Homo sapiens) (P06756 31-889 limits assumed): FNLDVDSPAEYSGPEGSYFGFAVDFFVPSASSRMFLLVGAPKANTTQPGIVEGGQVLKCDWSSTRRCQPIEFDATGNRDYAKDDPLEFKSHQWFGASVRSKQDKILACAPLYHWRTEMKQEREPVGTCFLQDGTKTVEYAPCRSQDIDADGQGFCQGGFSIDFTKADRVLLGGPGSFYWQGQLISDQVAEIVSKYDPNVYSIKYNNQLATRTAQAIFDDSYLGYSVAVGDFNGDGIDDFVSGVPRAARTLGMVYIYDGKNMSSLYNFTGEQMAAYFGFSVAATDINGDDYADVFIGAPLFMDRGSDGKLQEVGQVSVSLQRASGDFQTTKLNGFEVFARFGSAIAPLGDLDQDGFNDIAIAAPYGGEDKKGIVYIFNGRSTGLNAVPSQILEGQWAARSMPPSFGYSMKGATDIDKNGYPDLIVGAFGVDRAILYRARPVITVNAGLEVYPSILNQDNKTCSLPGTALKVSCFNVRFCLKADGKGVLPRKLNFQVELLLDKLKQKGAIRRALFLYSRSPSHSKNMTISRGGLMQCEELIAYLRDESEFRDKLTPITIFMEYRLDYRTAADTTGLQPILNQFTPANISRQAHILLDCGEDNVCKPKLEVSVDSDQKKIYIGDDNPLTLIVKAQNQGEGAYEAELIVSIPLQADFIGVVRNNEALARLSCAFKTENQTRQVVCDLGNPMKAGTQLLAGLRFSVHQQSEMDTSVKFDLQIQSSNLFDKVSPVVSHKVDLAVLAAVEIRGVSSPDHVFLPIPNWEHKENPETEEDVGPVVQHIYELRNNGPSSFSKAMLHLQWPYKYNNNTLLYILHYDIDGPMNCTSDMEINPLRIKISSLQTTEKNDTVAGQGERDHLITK
Chain of Integrin alpha-V (Homo sapiens) (P06756 891-1048 limits assumed): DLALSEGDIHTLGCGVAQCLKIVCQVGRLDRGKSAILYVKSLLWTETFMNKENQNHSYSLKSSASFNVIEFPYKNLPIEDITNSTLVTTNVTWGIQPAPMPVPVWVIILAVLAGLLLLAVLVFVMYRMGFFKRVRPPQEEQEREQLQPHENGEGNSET

As to `C[C@H](CCCOS(=O)(=O)O)[C@H]1CC[C@H]2[C@@H]3CC[C@@H]4C[C@H](O)CC[C@]4(C)[C@H]3CC[C@]12C`, the inhibition result with MDA-MB-231 [1] was “Active”. Moreover, the inhibition entry in the experiment with MDA-MB-231 [2] was “inactive”. The Activity entry in experiment [3], in experiment [4] and in experiment [5] was “Dose-Dependent Effect” in each case.
